This passage reports IC50 and melting point results from PMC8072159, “5-Bis-(2,6-difluoro-benzylidene) Cyclopentanone Acts as a Selective 11β-Hydroxysteroid Dehydrogenase one Inhibitor to Treat Diet-Induced Nonalcoholic Fatty Liver Disease in Mice” (Frontiers in Pharmacology, 2021).

One data set deals with human 11β-HSD1. More on the design: method as in Lin et al., 2013. Conditions: ref Lin et al., 2013; cited from earlier work.
The test system of another data set is rat 11β-HSD1. Details: method as in Lin et al., 2013. Conditions: ref Lin et al., 2013; cited from earlier work.

The structures appear in SMILES notation.

As usually defined, the IC50 is the midpoint of a concentration-inhibition curve. As to `O=C1C(=Cc2ccccc2Br)CCC1=Cc1ccccc1Br` [5-bis-(2-bromo-benzylidene) cyclopentanone], the figures for the IC50 with human 11β-HSD1 and with rat 11β-HSD1 were 346 nM and 148 nM, respectively. What is called melting point is the temperature of the solid-liquid transition. The compound `O=C1/C(=C/c2ccc(Cl)cc2Cl)CC/C1=C\c1ccc(Cl)cc1Cl` [WZS01, (2E,5E)-2,5-bis(2,4-dichlorobenzylidene) Cyclopentanone] came in with a melting point of 209.4 to 212 °C. Turning to `Cc1ccc(/C=C2\CC/C(=C\c3ccc(C)cc3C)C2=O)c(C)c1` [WZS03, (2E,5E)-2,5-bis(2,4-dimethylbenzylidene) Cyclopentanone], the melting point lay within 128.8 to 131.8 °C. Still for that read-out and setting: as for `O=C1/C(=C/c2cccc(Cl)c2Cl)CC/C1=C\c1cccc(Cl)c1Cl` [WZS04, (2E,5E)-2,5-bis(2,3-dichlorobenzylidene) Cyclopentanone], the figure is 204.6 to 206.8 °C; as for `COc1cc(OC)c(/C=C2\CC/C(=C\c3c(OC)cc(OC)cc3OC)C2=O)c(OC)c1` [WZS05, (2E,5E)-2,5-bis(2,4,6-Trimethoxybenzylidene) Cyclopentanone], 195 to 197.8 °C. Same read-out and setting: the result for `O=C1/C(=C/c2cc(F)ccc2F)CC/C1=C\c1cc(F)ccc1F` [WZS07, (2E,5E)-2,5-bis(2,5-difluorobenzylidene) Cyclopentanone] reads 208.1 to 209.8 °C.
